Earlier results as cited in patent US20020094316A1, “Polypodal chelants for metallopharmaceuticals” (priority 2001, published 2002).

Key:
[1] = compared with MECAM

Compound: O=C([O-])CN1CCN(CC(=O)[O-])CCN(CC(=O)[O-])CCN(CC(=O)[O-])CC1.[Gd+3] [Gd(DOTA)^−]
- half-life (in 0.1 M HCl): 60.2 h

Compound: O=C([O-])CN(CCN(CC(=O)[O-])CC(=O)[O-])CCN(CC(=O)[O-])CC(=O)[O-].[Gd+3] [Gd(DTPA)^2−]
- Kobs (decomposition) (acidic conditions): 1.2×10^−3 so^−1

Compound: O=C(N[C@H]1COC(=O)[C@@H](NC(=O)c2cccc(O)c2O)COC(=O)[C@@H](NC(=O)c2cccc(O)c2O)COC1=O)c1cccc(O)c1O [enterobactin]
- stability of Fe^3+ complex relative to MECAM [1]: much more stable
